Source: patent US20250049828A1, “PHARMACEUTICAL COMPOSITION FOR TREATING TUMORS AND USE” (INXMED (NANJING) CO., LTD., priority 2021, published 2025)

Tests used:
[1] = system: ovarian cancer cells SK-OV-3; experiment: CCK8 cell viability / cell killing curve; format: cell-based; details: Homo sapiens, SK-OV-3, drug alone, 72 hours
Protocol: A 96-well cell plate was plated with 5000 SK-OV-3 cells/well. After 24 hours, a drug with a maximum concentration of 20 μM was added and diluted with a 3-fold gradient dilution to set a total of 9 concentrations, with the lowest concentration being […]. After the drug and cells were co-incubated for 72 hours, 10 μL of CCK8 solution was added to each well, and the plate was incubated in a 37° C. and 5% carbon dioxide incubator for 2 hours. Then, a microplate reader was used for reading with a set absorbance wavelength of 450 nm. The values read were compared with the DMSO control group and plotted using Graphpad 8.0.
A 96-well cell plate was plated with 5000 SK-OV-3 cells/well. […] Adriamycin at these dosages was combined with 3 μM IN10018. After 72 hours of co-culture with the cells, cell viability was detected using CCK8 method. Graphpad 8.0 was used for plotting.
A 96-well cell plate was plated with 5000 SK-OV-3 cells/well. […] Adriamycin at these dosages was combined with 3 μM Defactinib. After 72 hours of co-culture with the cells, cell viability was detected using CCK8 method. Graphpad 8.0 was used for plotting.

[2] = system: CT26 cells; experiment: Microscope observation and flow cytometry of CRT and Annexin-V positive cells; format: cell-based, mouse; details: IN10018 5 μM, Adriamycin 1 μM, alone or combined, 48 hours
Protocol: Then the cells were collected for flow analysis.
The culture conditions were 37° C. and 5% CO2.

[3] = system: FAK and phosphorylated FAKY397; experiment: FAK knockdown efficiency by western blot; format: cell-based; details: 50 nM FAKsiRNA, SK-OV-3 cells, western blot 72 hours after transfection
Protocol: SK-OV-3 cells were used as the research object, and Lipofectamine 3000 was used to transfect the cells with 50 nM FAKsiRNA. After the assay, proteins were collected to detect the expression of FAK and phosphorylated FAKY397.
Lipofectamine 3000 was used as a transfection reagent. Downstream combination and ICD biomarker assays can be performed 24 hours after the transfection. 72 hours after the transfection, SK-OV-3 cell proteins were collected, and western blot was performed to detect the amount of phosphorylated FAKY397, FAK and alpha tubulin.

[4] = system: IFN-γ; experiment: ELISA of IFN-γ in serum of CT26 tumor-bearing mice; format: in vivo, BALB/c mice; details: IN10018 25 mg/kg PO QD × 8, Doxil 3 mg/kg i.v. QW × 2; blood 24 hours after the second administration of Doxil; n=5
Protocol: (§1) BALB/c mice (from Shanghai Lingchang Biotechnology Co., Ltd.) were used to construct the CT26 tumor cell model. When the tumor volume reached about 40 to 60 mm^3, the mice were randomly divided into groups according to the tumor volume and administered.
(§2) 24 hours after the second administration of Doxil, blood was collected from the orbit of four groups of animals. The blood was placed in a collection tube without anticoagulant and left standing to naturally coagulate at room temperature for 30 to 60 minutes. When the blood coagulated, the blood was centrifuged at 1000 rpm, 4° C. for 10 minutes. The upper serum was transferred to a new collection tube and stored in a −80° C. freezer.

[5] = system: Granzyme B; experiment: ELISA of Granzyme B in serum of CT26 tumor-bearing mice; format: in vivo, BALB/c mice; details: IN10018 25 mg/kg PO QD × 8, Doxil 3 mg/kg i.v. QW × 2; blood 24 hours after the second administration of Doxil; n=5
Protocol: as §1, §2

Compound | IC50 [1] [µM] | cell-killing effect observed under a microscope [2] | knockdown effect on phosphorylated FAKY397 and total FAK proteins [3] | IFN-γ protein concentration in serum [4] [pg/mL] | Granzyme B protein concentration in serum [5] [pg/mL]
COc1cccc2c1C(=O)c1c(O)c3c(c(O)c1C2=O)C[C@@](O)(C(=O)CO)C[C@@H]3O[C@H]1C[C@H](N)[C@H](O)[C@H](C)O1 [Adriamycin, doxorubicin, reference compound] | 0.3 | had cell-killing effect |  |  | 
FAKsiRNA: small interfering RNA for FAK knockdown, GenePharma; GGGCAUCAUUCAGAAGAUATT / UAUCUUCUGAAUGAUGCCCTT (chemistry not given here) |  |  | significant knockdown effect |  | 
COc1cc(C(=O)NC2CCN(C)CC2)c(F)cc1Nc1ncc(C(F)(F)F)c(Oc2cccc3c2C(=O)N(C)C3)n1 [IN10018] | 10 | in good condition |  | 367.24 ± 7.34 | 50.48 ± 53.08
